The IC50 is the point on the concentration scale where inhibition reaches its midpoint.

The test system of one assay is PC-3. Briefly: Cytotoxicity against human PC-3 cells assessed as reduction in cell viability incubated for 72 hrs by alamar blue assay. The format is functional, cell-based. Conditions: PC-3, 72 h.
As for `CO[C@H]1[C@H](O[C@@H]2c3c(cc4c(c3O)C(=O)c3c(O)cccc3C4=O)C(=O)[C@@](C)(O)[C@H]2OC)O[C@@H](C)[C@H](O)[C@H]1O` [ARANCIAMYCIN], the IC50 was 1.1 µM.
As for `CC(=O)[C@]1(O)Cc2c(O)c3c(c(O)c2[C@@H](O[C@H]2C[C@H](N)[C@H](O)[C@H](C)O2)C1)C(=O)c1c(O)cccc1C3=O` [CARUBICIN], the IC50 is 0.035 µM.
For the compound `COc1cccc2c1C(=O)c1c(cc3c(c1O)[C@@H](O[C@@H]1O[C@@H](C)[C@H](O)[C@@H](O)[C@H]1OC)[C@H](OC)[C@](C)(O)C3=O)C2=O`, the 50% inhibitory concentration (IC50) worked out at 4.3 µM.
Take `COc1cccc2c1C(=O)c1c(O)c3c(c(O)c1C2=O)C[C@@](O)(C(C)=O)C[C@@H]3O[C@H]1C[C@H](N)[C@H](O)[C@H](C)O1` [DAUNORUBICIN]: the IC50 was found to be 0.17 µM.
On the same count and under the same terms, in the case of `COc1cc(O)c2c(c1)C(=O)c1cc3c(c(O)c1C2=O)[C@@H](O[C@@H]1O[C@@H](C)[C@H](OC)[C@@H](O)[C@H]1OC)[C@H](OC)[C@](C)(O)C3=O` it was 3.1 µM.

The subject of the next assay is A549. Description: Cytotoxicity against human A549 cells assessed as reduction in cell viability incubated for 72 hrs by alamar blue assay. As to conditions: A549, 72 h. It counts as functional, cell-based.
`CO[C@H]1[C@H](O[C@@H]2c3c(cc4c(c3O)C(=O)c3c(O)cccc3C4=O)C(=O)[C@@](C)(O)[C@H]2OC)O[C@@H](C)[C@H](O)[C@H]1O` [ARANCIAMYCIN]: the IC50 turned out to be 2.7 µM.
As to `CC(=O)[C@]1(O)Cc2c(O)c3c(c(O)c2[C@@H](O[C@H]2C[C@H](N)[C@H](O)[C@H](C)O2)C1)C(=O)c1c(O)cccc1C3=O` [CARUBICIN], the IC50 was determined as 0.0131 µM.
`COc1cccc2c1C(=O)c1c(cc3c(c1O)[C@@H](O[C@@H]1O[C@@H](C)[C@H](O)[C@@H](O)[C@H]1OC)[C@H](OC)[C@](C)(O)C3=O)C2=O`: the IC50 amounted to 13.8 µM.
In the case of `COc1cccc2c1C(=O)c1c(O)c3c(c(O)c1C2=O)C[C@@](O)(C(C)=O)C[C@@H]3O[C@H]1C[C@H](N)[C@H](O)[C@H](C)O1` [DAUNORUBICIN], the half-maximal inhibitory concentration (IC50) is 0.199 µM.
On the same count and under the same terms, next, `COc1cc(O)c2c(c1)C(=O)c1cc3c(c(O)c1C2=O)[C@@H](O[C@@H]1O[C@@H](C)[C@H](OC)[C@@H](O)[C@H]1OC)[C@H](OC)[C@](C)(O)C3=O`: 2.8 µM.

These data come from ChEMBL document CHEMBL5335826, “Biochemical and Structural Studies of the Carminomycin 4-O-Methyltransferase DnrK” (J Nat Prod, 2024).
